Experiments:
[1] = tested on: cerebellar neurons on MAG-expressing CHO cells; assay: Neurite outgrowth of cerebellar neurons on MAG-expressing or control CHO cells; type: cell-based
Method: FIG. 2: Improved Axonal Growth on MAG Induced By Elevating cAMP Levels is Transcription-Dependent. (A) Isolated cerebellar neurons at a density of 20,000 neurons per well were plated onto a monolayer of either MAG-expressing Chinese hamster ovary (CHO) cells (striped bars) or control CHO cells (black bars) and cultured overnight before being fixed and immunostained for GAP43 to visualize the neurites. The length of the longest neurite per neuron, from 180-200 neurons, was measured and results are the average length+/−SEM. Where indicated, dibutyryl cAMP (dbcA) at 1 mM in the presence or absence of the inhibitor of transcription, 5,6-dichloro-1-b-D-ribofuranosylbenzimidazole (DRB) at 5 μM, was added to each culture. (B) Cerebellar neurons (1×10^6) were plated onto poly-L-lysine and cultured overnight with brain-derived neurotrophic factor (BDNF) at 200 ng/ml, (termed priming) in the presence or absence of DRB at 5 μM, before being transferred to the CHO cell monolayers.
FIG. 6: An Ornithine Decarboxylase (ODC) Inhibitor Abrogates the Blocking Effect of dbcAMP on the Inhibition of Axonal Outgrowth by MAG and Myelin. […] The longest neurite from at least 180-200 neurons were measured. Results are shown as the mean neurite length+/−SEM.
(§1) After further incubation, neurons were fixed and immunostained for GAP43. The longest neurite from each neuron for 180-200 neurons were measured. Results are shown as the mean neurite length+/−SEM.
FIG. 8: An Inhibitor Of ODC Blocks The Priming Effects Of GDNF On The Inhibition By MAG. […] After further incubation, neurons were fixed and immunostained for GAP43. The longest neurite from each neuron for 180-200 neurons were measured. Results are shown as the mean neurite length±SEM.
Primed neurons were transferred to either MAG-expressing or control CHO cells (A) or a substrate of CNS myelin (B) for further incubation. Neurons were then fixed and immunostained for GAP43. The longest neurite from each neuron was measured for 180-200 neurons. Results are shown as the percentage of control. […]
Neurons were isolated essentially as described in Doherty at al., Nature, 343, pp. 464-66 (1990); Neuron, 5, pp. 209-19 (1990); and Kleitman at al., Culturing Nerve Cells, pp. 337-78, MIT Press, Cambridge, Mass./London, England (G. Banker and K Goslin, Eds.) (1991). Briefly, for animals up to nine days of age, the cerebellum, from two animals were removed and combined in 5 ml of 0.025% trypsin in PBS, triturated, and incubated for a further 10 minutes (min.) at 37° C. Trypsinization was stopped by addition of 5 ml DMEM containing 10% fetal calf serum (FCS) and cells were centrifuged at 800 rpm for 6 min. […] For older DRG neurons, ganglia were removed from two animals and incubated in 5 ml of Sat medium containing 0.025% trypsin and 0.15% collagenase type I (Worthington) for 30 min. at 37° C. The ganglia were triturated with a fire-polished Pasteur pipette. Trypsinization was stopped by adding 5 ml of DMEM containing 10% FCS, centrifuged at 800 rpm for 6 min, and resuspended in 2 ml of SAT (DeBellard et al., 1996). Cells were counted with a Coulter counter.
Chinese hamster ovary (CHO) cells deficient in the dihydrofolate reductase (dhfr) gene (Urlaub and Chasin, Proc. Natl, Acad, Sci. 77, pp. 4216-20 (1980)) were transfected with a MAG-cDNA expression plasmid with the dhfr gene and the L-MAG cDNA, cells with multiple copies of dbfr were selected by growing in increasing concentrations of methotrexate, and the expression of MAG by individual transfected CHO cell lines characterized as described in Mukhopadhyay et al., Neuron, 13, pp. 757-67 (1994), which is incorporated herein by reference. The MAG-expressing transfected CHO cell line) (“CHO-MAG2”) in that publication was deposited on Jun. 27, 1996 with the American Type Culture Collection (ATCC) (Rockville, Md.) according to the provisions of the Budapest Treaty, and was assigned the ATCC accession number designated: ATCC CRL-12145. […]

[2] = tested on: DRG neurons on MAG-expressing CHO cells; assay: Neurite outgrowth of DRG neurons on MAG-expressing or control CHO cells; type: cell-based; details: P0-1 DRG neurons, DFMO 1 mM
Method: After overnight incubation, neurons were fixed and immunostained for GAP 43. The longest neurite from each of 120-150 DRG neurons were measured. Results are shown as the mean neurite length+/−SEM.
FIG. 14: Over-Expression Of Arginase In Older DRG Neurons By Adenovirus-Mediated Gene Transfer Is Sufficient To Overcome Inhibition By MAG. Postnatal day 5 DRG neurons (0.5×10^6) were plated in 24-well plates and infected with adenovirus containing ArgI-GFP or GFP alone. Alter overnight culture, infected neurons were transferred to MAG-expressing (stippled bars) or control (black bars) CHO cells for neurite outgrowth. Neurons were fixed and immunostained for GAP43. The neurons with double staining of GAP43 and GFP were considered as positively infected. The length of the longest neurite per neuron was measured for 120-150 positively infected neurons. Results are shown as the average neurite length+/−SEM of GFP-infected (GFP) or ArgI-infected (ArgI) neurons grown on MAG.
Neurons were isolated essentially as described in Doherty at al., Nature, 343, pp. 464-66 (1990); Neuron, 5, pp. 209-19 (1990); and Kleitman at al., Culturing Nerve Cells, pp. 337-78, MIT Press, Cambridge, Mass./London, England (G. Banker and K Goslin, Eds.) (1991). […] Cells were counted with a Coulter counter. […]

arginase = molecular target: T1, arginase (Rattus norvegicus, UniProt P07824); details: cited from earlier work
T1 sequence (P07824 1-323): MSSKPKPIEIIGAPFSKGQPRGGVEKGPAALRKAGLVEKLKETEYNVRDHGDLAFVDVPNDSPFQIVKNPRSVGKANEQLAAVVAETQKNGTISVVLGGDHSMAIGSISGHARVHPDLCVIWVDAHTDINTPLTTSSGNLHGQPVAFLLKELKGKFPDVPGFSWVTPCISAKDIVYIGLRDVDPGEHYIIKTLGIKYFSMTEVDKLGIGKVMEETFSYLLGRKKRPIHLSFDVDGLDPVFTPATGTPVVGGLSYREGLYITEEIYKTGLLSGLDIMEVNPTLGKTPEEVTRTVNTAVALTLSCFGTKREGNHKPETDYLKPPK

[3] = tested on: cerebellar neurons on purified CNS myelin; assay: Neurite outgrowth of cerebellar neurons on purified CNS myelin substrate; type: cell-based
Method: Isolated cerebellar neurons at a density of 20,000 neurons per well were plated onto a substrate of purified CNS myelin and cultured overnight before being fixed and immunostained for GAP43. The length of the longest neurite per neuron from 180-200 neurons was measured and results are the average length+/−SEM. Where indicated, dibutyryl cAMP (dbcA) at 1 mM in the presence or absence of the inhibitor of transcription, 5,6-dichloro-1-b-D-ribofuranosylbenzimidazole (DRB) at 5 μM, was added to each culture. (B) Cerebellar neurons (1×10^6) were plated onto poly-L-lysine and cultured overnight with brain-derived neurotrophic factor (BDNF) at 200 ng/ml, (termed priming) in the presence or absence of DRB at 5 μM, before being transferred to the CNS myelin substrate.
The longest neurite from at least 180-200 neurons were measured. Results are shown as the mean neurite length+/−SEM.
as §1
Primed neurons were transferred to either MAG-expressing or control CHO cells (A) or a substrate of CNS myelin (B) for further incubation. Neurons were then fixed and immunostained for GAP43. The longest neurite from each neuron was measured for 180-200 neurons.
Trypsinization was stopped by addition of 5 ml DMEM containing 10% fetal calf serum (FCS) and cells were centrifuged at 800 rpm for 6 min. […] The ganglia were triturated with a fire-polished Pasteur pipette. […] Cells were counted with a Coulter counter.
The neurite outgrowth assay was carried out by adding 5×10^4 neurons to the immobilized myelin substrate or 2×10^4 neurons to the CHO cell monolayers. Briefly, confluent monolayers of control and MAG-expressing CHO cells were established over a 24-hour (h) period in individual chambers of an 8-well tissue culture slide (Lab-Tek). […] Culture medium was SATO containing 2% FCS.
GAP43 antibody was detected by staining with Texas Red and arginase antibody was detected with anti-biotin secondary antibody followed by Texas Red-conjugated streptavidin.
After periods of time as indicated, the co-cultures were fixed for 30 min with 4% paraformaldehyde and permeabilized with ice-cold methanol for 2 min. […] After three more washes, the slides were mounted in Permfluor (Baxter) and viewed with a Zeiss fluorescent microscope. The length of the longest neurite for each GAP43-positive neuron was determined using the Biological Detection System image analysis program (Pittsburgh).

[4] = putrescine in the culture, no priming

## Cl.NCCCC(N)(C(=O)O)C(F)F (racemic) [DFMO, DL-a-difluoromethyl-ornithine hydrochloride]
[1]; DFMO 1 mM during overnight priming with BDNF 200 ng/ml
  effect on the positive (priming) effect of BDNF on axonal growth in the presence of MAG: completely abrogated
[1]; DFMO 1 mM during overnight priming with GDNF 200 ng/ml
  effect on the positive (priming) effect of GDNF on axonal growth in the presence of MAG: completely abrogated
[1]; DFMO 1 mM with dbcAMP 1 mM
  effect on the dbcAMP block of inhibition by MAG: lost
[1]; DFMO 1 mM, control CHO cells
  effect alone on neurite growth on control CHO cells: no significant effect
[1]; DFMO 1 mM, no dbcAMP
  effect alone on inhibition by MAG: no significant effect
[2]
  effect alone on neurite growth on control CHO cells, young DRG neurons: no effect
[2]; overnight
  effect on promotion of axonal growth by MAG in young DRG neurons: completely abolished

## N[C@@H](CCCCB(O)O)C(=O)O [ABH, 2(S)-amino-6-boronohexanoic acid]
arginase
  arginase inhibitor potency, in words: most potent inhibitor of arginase identified to date

## OC[C@H]1O[C@@H](n2cnc3cc(Cl)c(Cl)cc32)[C@H](O)[C@@H]1O [DRB, 5,6-dichloro-1-b-D-ribofuranosylbenzimidazole]
[1]; DRB 5 μM with dbcAMP 1 mM or BDNF 200 ng/ml priming
  effect of transcription inhibitor on the dbcAMP/BDNF block of MAG inhibition: neither dbcAMP nor BDNF block inhibition

## NCCCCN [putrescine]
[1]; overnight priming
  putrescine dose above which the blocking effect on MAG saturates: higher than 25 μM
[1]; putrescine (10 mM as printed elsewhere in the source) with DFMO 1 mM and BDNF during priming
  effect of putrescine on BDNF priming blocked by DFMO (MAG): restored the priming effect of BDNF
[1]; [4]
  block of inhibition of axonal growth by MAG, putrescine added without priming: only partially blocks
[3]; overnight priming
  putrescine concentration at which the blocking effect on myelin saturates: about 50 μM
[3]; priming with putrescine at 10 μM
  increase in axonal outgrowth on CNS myelin: two-fold
[3]; [4]
  block of inhibition of axonal growth by myelin, putrescine added without priming: only partially blocks

Source: US8673594B2, “Methods for stimulating nervous system regeneration and repair by regulating arginase I and polyamine synthesis” (Research Foundation of City University of New York, priority 2000, dated 2014)
